For this test, the system named is Mycobacterium tuberculosis. Kind of test: Antitubercular activity against Multidrug-resistant Mycobacterium tuberculosis after 7 days by resazurin assay. It is filed as functional. As to conditions: 168 h.

≈ marks a conversion by molar mass, not a printed value. Where only a bound is given, the exact number is not on record here.

In general, MIC refers to the lowest concentration found to suppress growth. Low values mean inhibition by little substance, high ones a need for much substance.

On to `Nc1nc(COC(=O)C2(c3ccc(Cl)cc3)CC2)cs1`, for which the MIC was greater than 50 µg/mL.

`Nc1nc(COC(=O)Cc2cccc(C(F)(F)F)c2)cs1` had a minimal inhibitory concentration (MIC) of 6.25 µg/mL (≈ 19.8 µM).

`Nc1nc(COC(=O)Cc2ccccc2OC(F)(F)F)cs1` registered an MIC greater than 50 µg/mL.

For `Nc1nc(COC(=O)c2cc(F)cc(C(F)(F)F)c2)cs1`, the minimal inhibitory concentration (MIC) is greater than 50 µg/mL.

`N#CCCc1cccc(C(=O)OCc2csc(N)n2)c1` displayed an MIC of 6.25 µg/mL (≈ 21.8 µM).

`N#Cc1ccccc1C(=O)OCc1csc(N)n1` registered a minimum inhibitory concentration (MIC) greater than 50 µg/mL.

`Nc1nc(COC(=O)c2cccs2)cs1` returned a minimal inhibitory concentration (MIC) greater than 50 µg/mL.

Take `Nc1nc(COC(=O)c2cccc([N+](=O)[O-])c2Cl)cs1`: the minimal inhibitory concentration (MIC) was 6.25 µg/mL (≈ 19.9 µM).

The compound `Nc1nc(COC(=O)c2c(F)cccc2Cl)cs1` came in with a minimum inhibitory concentration (MIC) of 6.25 µg/mL (≈ 21.8 µM).

For the compound `Nc1nc(COC(=O)c2c(F)cc(F)cc2F)cs1`, the lowest concentration to inhibit growth (MIC) was 25 µg/mL (≈ 86.7 µM).

`Nc1nc(COC(=O)c2ccc3ccccc3c2)cs1` had a minimum inhibitory concentration (MIC) greater than 50 µg/mL.

Regarding `Nc1nc(COC(=O)c2ccc([N+](=O)[O-])cc2)cs1`, the minimal inhibitory concentration (MIC) came out at 1.25 µg/mL (≈ 4.48 µM).

As for `Nc1nc(COC(=O)c2c(Cl)cc(Cl)cc2Cl)cs1`, the MIC was greater than 50 µg/mL.

`N#Cc1cccc(C(=O)OCc2csc(N)n2)n1` returned a minimal inhibitory concentration (MIC) greater than 50 µg/mL.

Take `Nc1nc(COC(=O)c2ccc(Br)cc2)cs1`: the MIC amounted to 2.5 µg/mL (≈ 7.98 µM).

`Nc1nc(COC(=O)c2ccccc2[N+](=O)[O-])cs1`: inhibition of growth (MIC) required 12.5 µg/mL (≈ 44.8 µM).

Compound `NNC(=O)c1ccncc1` [ISONIAZID] came in with an MIC of 12.5 µg/mL (≈ 91.1 µM).

Compound `CO[C@H]1/C=C/O[C@@]2(C)Oc3c(C)c(O)c4c(O)c(c(/C=N/N5CCN(C)CC5)c(O)c4c3C2=O)NC(=O)/C(C)=C\C=C\[C@H](C)[C@H](O)[C@@H](C)[C@@H](O)[C@@H](C)[C@H](OC(C)=O)[C@@H]1C` [RIFAMPIN] gave an MIC of 25 µg/mL (≈ 30.4 µM). This MIC is about 2-fold higher than that of the compound before.

(Values after ChEMBL document CHEMBL1944562, “Design, synthesis of some new (2-aminothiazol-4-yl)methylester derivatives as possible antimicrobial and antitubercular agents” (2012).)
